Test results published in US12186358B2, “Compositions and methods for supporting immune health” (Plexus Worldwide, LLC, priority 2021, dated 2025).

Columns and labels:
Format in all cases: cell-based, Human
Settings in all cases: LPS 0.1 ng/mL
IL-8 = test: Cytokine expression in PBMC supernatants (Luminex multiplex): IL-8
Procedure: (§1) An exemplary natural-based composition is evaluated in an in vitro Peripheral Blood […] Cells cellular inflammation model.
(§2) Test Item Preparation: 120 mg of the exemplary composition (Project Shield) was dissolved in 6000 μL of CGM on the day of use to create a 2% (w/v) Dilution Stock Solution. A 2 ng/mL Working Stock of Lipopolysaccharides (“LPS”) was prepared fresh with IM and stored at 2-8° C. 10 μL LPS (2 ng/mL) was added to the appropriate wells for a final concentration of 0.1 ng/mL.
(§3) Complete Growth Media (CGM): To formulate CGM, RPMI was supplemented with 10% FBS and 100 U/mL penicillin+100 μg/mL streptomycin. CGM was prepared aseptically and stored at 2-8° C. for the duration of the study. CGM was warmed to 37° C. prior to use.
(§4) Cell Culture Set-up: Cells were thawed according to manufacturer's instructions, washed in CGM and assessed for viability using trypan blue staining. A stock cell solution of 2×10^6 cells/mL suspended in CGM was prepared. 100 μL of the stock solution was added to appropriate wells of a 96-well plate to seed 2×10^5 cells per well. […]
(§5) As illustrated in FIGS. 1-8, inflammatory cytokine expression for cell supernatants at 48 hours post stimulation/treatment. Expression was assessed by multiplex using the Luminex platform for the following cytokines: IFNγ, IL-1β, IL-6, IL-8, IL-10, IL-12p40, IL-12p70, TNF-α. […]

TNF-α = test: Cytokine expression in PBMC supernatants (Luminex multiplex): TNF-α
Procedure: as §1, §2, §3, §4, §5

IL-1β = test: Cytokine expression in PBMC supernatants (Luminex multiplex): IL-1β
Procedure: as §1, §2, §3, §4, §5

IL-12p40 = test: Cytokine expression in PBMC supernatants (Luminex multiplex): IL-12p40
Procedure: as §1, §2, §3, §4, §5

IL-12p70 = test: Cytokine expression in PBMC supernatants (Luminex multiplex): IL-12p70
Procedure: as §1, §2, §3, §4, §5

IL-6 = test: Cytokine expression in PBMC supernatants (Luminex multiplex): IL-6
Procedure: as §1, §2, §3, §4, §5

IL-10 = test: Cytokine expression in PBMC supernatants (Luminex multiplex): IL-10
Procedure: as §1, §2, §3, §4, §5

IFNγ = test: Cytokine expression in PBMC supernatants (Luminex multiplex): IFNγ
Procedure: as §1, §2, §3, §4, §5

Lipopolysaccharides [LPS]
IL-8, LPS control Group vs Media Control (IL-8; donor 1, 48 h): not donor 1
IL-8, LPS control Group vs Media Control (IL-8; donor 2, 48 h): significantly increased
TNF-α, LPS control Group vs Media Control (TNF-α; donor 1, 48 h): not donor 1
TNF-α, LPS control Group vs Media Control (TNF-α; donor 2, 48 h): significantly increased
IL-1β, LPS control Group vs Media Control (IL-1β; donor 1, 48 h): not significantly increased
IL-1β, LPS control Group vs Media Control (IL-1β; donor 2, 48 h): not significantly increased
IL-12p40, LPS control Group vs Media Control (IL-12p40; donor 1, 48 h): significantly increased
IL-12p40, LPS control Group vs Media Control (IL-12p40; donor 2, 48 h): significantly increased
IL-12p70, LPS control Group vs Media Control (IL-12p70; donor 1, 48 h): significantly increased
IL-12p70, LPS control Group vs Media Control (IL-12p70; donor 2, 48 h): significantly increased
IL-6, LPS control Group vs Media Control (IL-6; donor 1, 48 h): significantly increased
IL-6, LPS control Group vs Media Control (IL-6; donor 2, 48 h): significantly increased
IL-10, LPS control Group vs Media Control (IL-10; donor 1, 48 h): significantly increased
IL-10, LPS control Group vs Media Control (IL-10; donor 2, 48 h): not donor 2
IFNγ, LPS control Group vs Media Control (IFNγ; donor 1, 48 h): significantly increased
IFNγ, LPS control Group vs Media Control (IFNγ; donor 2, 48 h): significantly increased
